Measurements published in PubChem BioAssay AID1963871 (Molecular Pharmacology Branch, DTP, NCI, 2024).

Tested on: KRAS-mutant PDC multicell tumor spheroid viability
Assay: Anticancer human tumor 521955-158-R2-J5-PDC patient-derived pancreatic carcinoma cell line growth inhibition [KRAS2]
Conditions: for viability, T/C: stronger effect = lower value
Summary of the method: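 KRAS-mutant tumor cells were grown as spheroids with HUVEC endothelial cells and human MSCs as stroma. Targeted agents were tested alone and with KRAS pathway inhibitors. Doses started at or near clinical Cmax, or 10 microM, descending half-log.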

[1] = curve of first compound, second compound 0.1 µM
[2] = curve of first compound, second compound 0.316 µM
[3] = curve of first compound, second compound 1 µM
[4] = curve of first compound, second compound 3.16 µM
[5] = curve of first compound, second compound 10 µM
[6] = second compound 0.1 µM, first compound 0.0316 µM
[7] = second compound 0.1 µM, first compound 0.1 µM
[8] = second compound 0.1 µM, first compound 0.316 µM
[9] = second compound 0.1 µM, first compound 1 µM
[10] = second compound 0.1 µM, first compound 3.16 µM
[11] = second compound 0.316 µM, first compound 0.0316 µM
[12] = second compound 0.316 µM, first compound 0.1 µM
[13] = second compound 0.316 µM, first compound 0.316 µM
[14] = second compound 0.316 µM, first compound 1 µM
[15] = second compound 0.316 µM, first compound 3.16 µM
[16] = second compound 1 µM, first compound 0.0316 µM
[17] = second compound 1 µM, first compound 0.1 µM
[18] = second compound 1 µM, first compound 0.316 µM
[19] = second compound 1 µM, first compound 1 µM
[20] = second compound 3.16 µM, first compound 0.0316 µM
[21] = second compound 3.16 µM, first compound 0.1 µM
[22] = second compound 3.16 µM, first compound 0.316 µM
[23] = second compound 3.16 µM, first compound 1 µM
[24] = second compound 3.16 µM, first compound 3.16 µM
[25] = second compound 10 µM, first compound 0.0316 µM
[26] = second compound 10 µM, first compound 0.1 µM
[27] = second compound 10 µM, first compound 0.316 µM
[28] = second compound 10 µM, first compound 1 µM
[29] = second compound 10 µM, first compound 3.16 µM
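Note: viability read after seven days of drug exposure.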

For `CC1COCCN1c1cc(-c2ccnn2C)c2ccnc(-c3ccn[nH]3)c2n1` (stereo not drawn) + COc1cc2nc(C)nc(NC(C)c3cc(N)cc(C(F)(F)F)c3)c2cc1OC1CCOC1, the IC50 [1] was 21.4 nM, the IC50 [2] was 21.7 nM and the IC50 [3] was 21.4 nM. The IC50 [4] was 23 nM, the IC50 [5] was less than 10 nM and the viability, T/C (second compound 0.1 µM, first compound 0.01 µM) was 85.3%. The viability, T/C [6] was 31.8%, the viability, T/C [7] was 9.64% and the viability, T/C [8] was 12.1%. It also gave a viability, T/C [9] of 16.3%, a viability, T/C [10] of 20.9% and a viability, T/C (second compound 0.316 µM, first compound 0.01 µM) of 85%. It also gave a viability, T/C [11] of 33%, a viability, T/C [12] of 8.19% and a viability, T/C [13] of 10.6%. It also gave a viability, T/C [14] of 15.9%, a viability, T/C [15] of 22.8% and a viability, T/C (second compound 1 µM, first compound 0.01 µM) of 93.4%. The viability, T/C [16] was 27.7%, the viability, T/C [17] was 10.1% and the viability, T/C [18] was 11.7%. The viability, T/C [19] was 15.6%, the viability, T/C (second compound 1 µM, first compound 3.16 µM) was 21.9% and the viability, T/C (second compound 3.16 µM, first compound 0.01 µM) was 97.4%. It also gave a viability, T/C [20] of 31.6%, a viability, T/C [21] of 7.75% and a viability, T/C [22] of 10.1%. It also gave a viability, T/C [23] of 16.6%, a viability, T/C [24] of 23.1% and a viability, T/C (second compound 10 µM, first compound 0.01 µM) of 39.6%. It also gave a viability, T/C [25] of 9.76%, a viability, T/C [26] of 4.43% and a viability, T/C [27] of 7.6%. It also gave a viability, T/C [28] of 16% and a viability, T/C [29] of 12.9%.

Compound `COc1cc(Nc2ncc3c(n2)-c2ccc(Cl)cc2C(c2c(F)cccc2OC)=NC3)ccc1C(=O)O` + C=CC(=O)N1CCN(c2nc(=O)n(-c3c(C)ccnc3C(C)C)c3nc(-c4c(O)cccc4F)c(F)cc23)C(C)C1 has an IC50 [1] of less than 31.6 nM, an IC50 [2] of less than 31.6 nM and an IC50 [3] of less than 31.6 nM. It also gave an IC50 [4] of less than 31.6 nM, an IC50 [5] of less than 31.6 nM and a viability, T/C [6] of 47.6%. It also gave a viability, T/C [7] of 49.3%, a viability, T/C [8] of 43% and a viability, T/C [9] of 42.2%. For the same compound, the viability, T/C [10] was 46.1%, the viability, T/C (second compound 0.1 µM, first compound 10 µM) was 38.8% and the viability, T/C [11] was 43.2%. It also gave a viability, T/C [12] of 44.5%, a viability, T/C [13] of 52.2% and a viability, T/C [14] of 44.5%. The viability, T/C [15] was 44.3%, the viability, T/C (second compound 0.316 µM, first compound 10 µM) was 36.4% and the viability, T/C [16] was 48.1%. It also gave a viability, T/C [17] of 44.8%, a viability, T/C [18] of 43.1% and a viability, T/C [19] of 48%. For the same compound, the viability, T/C (second compound 1 µM, first compound 10 µM) was 32.7%, the viability, T/C [20] was 47.5% and the viability, T/C [21] was 45.9%. For the same compound, the viability, T/C [22] was 36%, the viability, T/C [23] was 40.3% and the viability, T/C [24] was 37%. For the same compound, the viability, T/C (second compound 3.16 µM, first compound 10 µM) was 31.9%, the viability, T/C [25] was 40.6% and the viability, T/C [26] was 43.5%. It also gave a viability, T/C [27] of 38.5%, a viability, T/C [28] of 37.5% and a viability, T/C [29] of 34.8%. It also gave a viability, T/C (second compound 10 µM, first compound 10 µM) of 39.6%.

In the case of `CCN1CCN(Cc2ccc(Nc3ncc(F)c(-c4cc(F)c5nc(C)n(C(C)C)c5c4)n3)nc2)CC1`, the viability, T/C (compound 0.00316 µM) is reported as 99% [middle of 5 runs], the viability, T/C (compound 0.01 µM) is reported as 98.1% [middle of 5 runs] and the viability, T/C (compound 0.0316 µM) is reported as 87.7% [middle of 5 runs]. For the same compound, the viability, T/C (compound 0.1 µM) was 90.7% [middle of 5 runs], the viability, T/C (compound 0.316 µM) was 99.1% [middle of 5 runs] and the viability, T/C (compound 1 µM) was 87.5% [middle of 5 runs]. For the same compound, the IC50 (curve of compound) was greater than 1000 nM.

With `CC(C)NCC(C(=O)N1CCN(c2ncnc3c2C(C)CC3O)CC1)c1ccc(Cl)cc1` (stereo not drawn) the viability, T/C (compound 0.0316 µM) was 100% [middle of 5 runs], the viability, T/C (compound 0.1 µM) was 102% [middle of 5 runs] and the viability, T/C (compound 0.316 µM) was 83.8% [middle of 5 runs]. The viability, T/C (compound 1 µM) was 80.8% [middle of 5 runs], the viability, T/C (compound 3.16 µM) was 84.4% [middle of 5 runs] and the viability, T/C (compound 10 µM) was 66.7% [middle of 5 runs]. It also gave an IC50 (curve of compound) greater than 10000 nM.
